Experimental findings from ChEMBL document CHEMBL1201862, “PubChem BioAssay data set” (2004) are described below.

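Cultured in 96-well plates, cells were exposed to test compound for 48 hours across five concentrations. Here, GI50 denotes the concentration required for 50% inhibition of growth.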 Active and inactive are the calls of the source. Cut-off read from the data, not from the text of the source: active = GI50 up to about 1.1 µM and inactive = higher.

Test systems include UO-31; RXF 393; OVCAR-4; OVCAR-5; NCI-H23; HCC 2998; OVCAR-3; HL-60; MDA-MB-231; MCF7; HOP-92; KM12; BT-549; HCT-116; NCI/ADR-RES; COLO 205; UACC-257; DU-145; SNB-75; SW-620.
Holding throughout (experiment): NCI anticancer screen, dose series, 48 h

Take `O=C1C(=C(C(=O)c2ccccc2)C(=O)c2ccccc2)OC(c2ccccc2)=C1C(=O)c1ccccc1`: the GI50 is 6.79 µM (inactive) with UO-31; 0.122 µM (active) with RXF 393; 2.79 µM (inactive) in the assay with OVCAR-4; 16.9 µM (inactive) in the assay with OVCAR-5; 6.1 µM (inactive) with NCI-H23; 9.77 µM (inactive) in the assay with HCC 2998. Also, the GI50 in the assay with OVCAR-3 was 5.86 µM (inactive); in the assay on HL-60, 6.84 µM (inactive); in the assay on MDA-MB-231 it was 6.61 µM (inactive); with MCF7, 1.85 µM (inactive); in the assay on HOP-92 it was 7.19 µM (inactive); in the assay with KM12, 5.5 µM (inactive). The GI50 in the assay on BT-549 is 3.01 µM (inactive); in the assay with HCT-116 it was 4.44 µM (inactive); in the assay on NCI/ADR-RES, 5.2 µM (inactive); in the assay on COLO 205 it was 12.8 µM (inactive); in the assay with UACC-257, 17.1 µM (inactive); in the assay on DU-145 it was 9.06 µM (inactive).
For the compound `CCNC(C)(C)C(SS)c1ccc(Br)cc1` (centres undefined), the GI50 in the assay on UO-31 is 79.1 µM (inactive); in the assay on RXF 393, 46 µM (inactive); with OVCAR-4 it was 44.5 µM (inactive); with OVCAR-5, > 100 µM (inactive); with NCI-H23 it was > 100 µM (inactive); with OVCAR-3 it was 46.6 µM (inactive). The GI50 in the assay with HL-60 is 21.9 µM (inactive); in the assay on MDA-MB-231, > 100 µM (inactive); with MCF7, 39.4 µM (inactive); with HOP-92 it was > 100 µM (inactive); in the assay on KM12, > 100 µM (inactive); with BT-549, > 100 µM (inactive). Further, the GI50 in the assay with HCT-116 was 29.6 µM (inactive); in the assay with SNB-75 it was > 100 µM (inactive); with SW-620 it was 22.4 µM (inactive); with NCI/ADR-RES, > 100 µM (inactive); in the assay with COLO 205, 62.1 µM (inactive); with UACC-257, 28.3 µM (inactive). Besides, the GI50 in the assay with DU-145 was > 100 µM (inactive).
For `COc1cc(S(=O)(=O)Nc2nc(-c3ccc(N4C(=O)/C(=C/C=C/c5ccccc5)N=C4c4ccccc4)cc3)cs2)ccc1Cl`, the GI50 in the assay with UO-31 is > 100 µM (inactive); in the assay on RXF 393 it was 37.6 µM (inactive); in the assay with OVCAR-4, > 100 µM (inactive); in the assay with OVCAR-5 it was > 100 µM (inactive); in the assay with NCI-H23 it was > 100 µM (inactive); in the assay on OVCAR-3, > 100 µM (inactive). The GI50 with HL-60 was 60.7 µM (inactive); in the assay on MDA-MB-231, 34.3 µM (inactive); in the assay on MCF7, 43 µM (inactive); with HOP-92, 28.3 µM (inactive); in the assay on KM12, > 100 µM (inactive); in the assay on BT-549, 45 µM (inactive). Also, the GI50 with HCT-116 is 78.9 µM (inactive); in the assay with SNB-75, 93.1 µM (inactive); with SW-620 it was > 100 µM (inactive); in the assay on NCI/ADR-RES, > 100 µM (inactive); in the assay on COLO 205 it was > 100 µM (inactive); with UACC-257 it was > 100 µM (inactive). Also, the GI50 with DU-145 is > 100 µM (inactive).
Turning to `CC(=O)OCC1OC(n2c3c(c(-c4ccc(C)cc4)c(C#N)c2=S)C(=O)CC(C)(C)C3)C(OC(C)=O)C(OC(C)=O)C1OC(C)=O` (centres undefined), the GI50 is 58.5 µM (inactive) in the assay on UO-31; 23.3 µM (inactive) in the assay on RXF 393; > 10 µM (inactive) with OVCAR-4; > 100 µM (inactive) in the assay with OVCAR-5; 42.8 µM (inactive) in the assay on NCI-H23; 70 µM (inactive) with OVCAR-3. The GI50 in the assay on HL-60 is 23.5 µM (inactive); with MDA-MB-231, 23.4 µM (inactive); in the assay with MCF7 it was 25.6 µM (inactive); in the assay on HOP-92 it was 45.5 µM (inactive); in the assay with KM12, 36.4 µM (inactive); with BT-549 it was 19.3 µM (inactive). The GI50 in the assay with HCT-116 is 34.8 µM (inactive); with SNB-75, 23.9 µM (inactive); with SW-620, 46 µM (inactive); in the assay on NCI/ADR-RES, 57.4 µM (inactive); in the assay on COLO 205, 37.3 µM (inactive); with UACC-257, 18.5 µM (inactive). In the assay with DU-145, the GI50 was 50.4 µM (inactive).
As for `CN1CCc2c(sc3ncn(Nc4ccc(Cl)cc4)c(=N)c23)C1`, the GI50 in the assay on RXF 393, in the assay with OVCAR-4, in the assay on OVCAR-5, in the assay with NCI-H23, in the assay on OVCAR-3 and in the assay on HL-60 was > 100 µM (inactive) each time. Besides, the GI50 in the assay with MDA-MB-231, in the assay with MCF7, in the assay with HOP-92, in the assay on KM12, in the assay with BT-549 and in the assay on HCT-116 was > 100 µM (inactive) throughout. For the same compound, the GI50 with SNB-75, with SW-620, in the assay on NCI/ADR-RES, in the assay with COLO 205, in the assay on UACC-257 and with DU-145 was > 100 µM (inactive) throughout.
On to `CN1CCN(C(=S)N2CCN(C)CC2)CC1`, for which the GI50 was > 100 µM (inactive) with UO-31; > 100 µM (inactive) in the assay on RXF 393; > 65.2 µM (inactive) in the assay with OVCAR-4; > 100 µM (inactive) in the assay with OVCAR-5; > 32.1 µM (inactive) in the assay with NCI-H23; > 61.5 µM (inactive) in the assay on HCC 2998. The GI50 is > 100 µM (inactive) with HL-60; > 100 µM (inactive) in the assay on MDA-MB-231; 1.08 µM (active) with MCF7; > 100 µM (inactive) in the assay on HOP-92; > 100 µM (inactive) with KM12; > 100 µM (inactive) with BT-549. Moreover, the GI50 was > 100 µM (inactive) in the assay on HCT-116; > 30.8 µM (inactive) in the assay with SW-620; 25.3 µM (inactive) with NCI/ADR-RES; 1.37 µM (inactive) with COLO 205; > 100 µM (inactive) with UACC-257; > 100 µM (inactive) in the assay on DU-145.
As for `CCN(CC)CCCNc1ccc([N+](=O)[O-])c2nc3ccc(OC)cc3c(N)c12`, the GI50 in the assay on UO-31 is > 5.58 µM (inactive); in the assay on RXF 393 it was > 10 µM (inactive); with OVCAR-4 it was 1.92 µM (inactive); in the assay on OVCAR-5, > 10 µM (inactive); in the assay on NCI-H23, 2.29 µM (inactive); in the assay on OVCAR-3, > 4.46 µM (inactive). Also, the GI50 in the assay with HL-60 was 1.94 µM (inactive); with MDA-MB-231, 1.7 µM (inactive); in the assay with MCF7, > 4.37 µM (inactive); with HOP-92 it was > 3.65 µM (inactive); in the assay on KM12 it was 1.57 µM (inactive); with BT-549, 1.53 µM (inactive). The GI50 in the assay with HCT-116 is 1.05 µM (active); with SNB-75, 1.93 µM (inactive); in the assay with SW-620 it was 1.49 µM (inactive); in the assay with NCI/ADR-RES, > 4.17 µM (inactive); in the assay with COLO 205, 1.34 µM (inactive); with UACC-257, > 10 µM (inactive). Further, the GI50 in the assay on DU-145 was 3.21 µM (inactive).
Regarding `COc1cc2c(/C=C3/C(=O)Nc4cc(C)c(O)cc43)c(Cl)[nH]c2cc1C`, the GI50 in the assay with UO-31 was 4.31 µM (inactive); in the assay on RXF 393, 1.66 µM (inactive); in the assay on OVCAR-4, 4.31 µM (inactive); with OVCAR-5 it was 4.33 µM (inactive); in the assay with NCI-H23, 1.26 µM (inactive); with OVCAR-3 it was 1.06 µM (active). The GI50 is 1.86 µM (inactive) in the assay with HL-60; 2.59 µM (inactive) in the assay with MDA-MB-231; 1.8 µM (inactive) in the assay on MCF7; 23 µM (inactive) with HOP-92; 1.85 µM (inactive) in the assay with KM12; 6.75 µM (inactive) in the assay on BT-549. Further, the GI50 in the assay with HCT-116 is 2.64 µM (inactive); in the assay with SNB-75, 2.05 µM (inactive); in the assay on SW-620 it was 2.83 µM (inactive); in the assay on NCI/ADR-RES, 2.88 µM (inactive); in the assay on COLO 205, 2.03 µM (inactive); in the assay with UACC-257, 6.18 µM (inactive). In the assay with DU-145, the GI50 was 2.75 µM (inactive).
